The source of these data is patent publication US10077261B2, “Imidazolin-5-one derivative useful as FASN inhibitors for the treatment of cancer” (Janssen Pharmaceutica NV, priority 2012, dated 2018).

Assay [1] has as its system A2780 ovarian cells. Nature of the assay: A2780 ovarian cell proliferation assay in lipid reduced medium, with palmitate (MTT). Type of assay: cell-based. As to conditions: Homo sapiens, A2780, 96 h; read-out: pIC50 A2780 Ovarian Cell, With Palmitate (converted). Summed up: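 Seeded cells were switched next day to lipid-reduced serum, exposed to compound and 25 μM palmitate complexed with fatty-acid-free BSA, and incubated 96 h. Proliferation was then determined by MTT absorbance at 544 nm, with a best-fit curve of signal against concentration.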

Assay [2] relates to LNCaP-Vancouver prostate cells. Nature of the assay: In vitro LNCaP Vancouver prostate cell proliferation assay in lipid reduced medium. Type of assay: cell-based. As to conditions: read-out: pIC50 LNCaP_Vancouver prostate cell (converted).
In assay [3] the target is Fatty Acid Synthase Keto-reductase Domain (FASN KR) (Homo sapiens, UniProt P49327). Nature of the assay: Fatty Acid Synthase keto-reductase domain (FASN KR) inhibition, NADPH oxidation at 340 nm.
Protocol: After 20 minutes incubation at room temperature the plate was measured again (T2).
The decrease in absorbance was calculated as (Absorbance before incubation T1)−(Absorbance following incubation T2).
A plot of Controlmin versus test compound concentration was fitted to a 4-parameter logistic curve using a non-linear least squares regression method.
Assay [4] has as its system PC-3M-Luc-C6 prostate cells. Briefly: In vitro PC-3M-Luc-C6 prostate cell proliferation assay in lipid reduced medium. The format is cell-based. As to conditions: 96 h, read-out: pIC50 PC-3M-Luc-C6 prostate cell (converted).
Assay [5] deals with T1, hFASN enzyme (full length) (Homo sapiens, UniProt P49327).
T1 construct: 10 μL hFASN enzyme (full length, 300 ng, purified in house); made in house
Nature of the assay: Fatty Acid Synthase (FASN) inhibition scintillation proximity assay. The format is biochemical. As to conditions: for inhibition at 10 µM: read-out: Human FASN % inhibition @ 10 μM, 10 μM test compound; for IC50: read-out: Human FASN pIC50 (converted). A digest of the protocol:
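Compounds at 0.01–30 μM were mixed with 300 ng purified full-length enzyme in 100 mM KH2PO4 pH 7.5, 1 mM DTT. Substrates ³H-acetyl-CoA and malonyl-CoA were then converted, and bead addition stopped the reaction. Signal was normalised to low and high plate controls and fitted by 4-parameter nonlinear regression.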
Background: SPA uses beads or plates that emit light when radiolabelled molecules are held near them.

The subject of assay [6] is A2780 ovarian cells. Briefly: A2780 ovarian cell proliferation assay in lipid reduced medium, without palmitate (MTT). Type of assay: cell-based. As to conditions: Homo sapiens, A2780, 96 h; read-out: pIC50 A2780 Ovarian Cell, Without Palmitate (converted).

Sequence of Fatty Acid Synthase Keto-reductase Domain (FASN KR) (P49327 whole entry, the tested form may be a part): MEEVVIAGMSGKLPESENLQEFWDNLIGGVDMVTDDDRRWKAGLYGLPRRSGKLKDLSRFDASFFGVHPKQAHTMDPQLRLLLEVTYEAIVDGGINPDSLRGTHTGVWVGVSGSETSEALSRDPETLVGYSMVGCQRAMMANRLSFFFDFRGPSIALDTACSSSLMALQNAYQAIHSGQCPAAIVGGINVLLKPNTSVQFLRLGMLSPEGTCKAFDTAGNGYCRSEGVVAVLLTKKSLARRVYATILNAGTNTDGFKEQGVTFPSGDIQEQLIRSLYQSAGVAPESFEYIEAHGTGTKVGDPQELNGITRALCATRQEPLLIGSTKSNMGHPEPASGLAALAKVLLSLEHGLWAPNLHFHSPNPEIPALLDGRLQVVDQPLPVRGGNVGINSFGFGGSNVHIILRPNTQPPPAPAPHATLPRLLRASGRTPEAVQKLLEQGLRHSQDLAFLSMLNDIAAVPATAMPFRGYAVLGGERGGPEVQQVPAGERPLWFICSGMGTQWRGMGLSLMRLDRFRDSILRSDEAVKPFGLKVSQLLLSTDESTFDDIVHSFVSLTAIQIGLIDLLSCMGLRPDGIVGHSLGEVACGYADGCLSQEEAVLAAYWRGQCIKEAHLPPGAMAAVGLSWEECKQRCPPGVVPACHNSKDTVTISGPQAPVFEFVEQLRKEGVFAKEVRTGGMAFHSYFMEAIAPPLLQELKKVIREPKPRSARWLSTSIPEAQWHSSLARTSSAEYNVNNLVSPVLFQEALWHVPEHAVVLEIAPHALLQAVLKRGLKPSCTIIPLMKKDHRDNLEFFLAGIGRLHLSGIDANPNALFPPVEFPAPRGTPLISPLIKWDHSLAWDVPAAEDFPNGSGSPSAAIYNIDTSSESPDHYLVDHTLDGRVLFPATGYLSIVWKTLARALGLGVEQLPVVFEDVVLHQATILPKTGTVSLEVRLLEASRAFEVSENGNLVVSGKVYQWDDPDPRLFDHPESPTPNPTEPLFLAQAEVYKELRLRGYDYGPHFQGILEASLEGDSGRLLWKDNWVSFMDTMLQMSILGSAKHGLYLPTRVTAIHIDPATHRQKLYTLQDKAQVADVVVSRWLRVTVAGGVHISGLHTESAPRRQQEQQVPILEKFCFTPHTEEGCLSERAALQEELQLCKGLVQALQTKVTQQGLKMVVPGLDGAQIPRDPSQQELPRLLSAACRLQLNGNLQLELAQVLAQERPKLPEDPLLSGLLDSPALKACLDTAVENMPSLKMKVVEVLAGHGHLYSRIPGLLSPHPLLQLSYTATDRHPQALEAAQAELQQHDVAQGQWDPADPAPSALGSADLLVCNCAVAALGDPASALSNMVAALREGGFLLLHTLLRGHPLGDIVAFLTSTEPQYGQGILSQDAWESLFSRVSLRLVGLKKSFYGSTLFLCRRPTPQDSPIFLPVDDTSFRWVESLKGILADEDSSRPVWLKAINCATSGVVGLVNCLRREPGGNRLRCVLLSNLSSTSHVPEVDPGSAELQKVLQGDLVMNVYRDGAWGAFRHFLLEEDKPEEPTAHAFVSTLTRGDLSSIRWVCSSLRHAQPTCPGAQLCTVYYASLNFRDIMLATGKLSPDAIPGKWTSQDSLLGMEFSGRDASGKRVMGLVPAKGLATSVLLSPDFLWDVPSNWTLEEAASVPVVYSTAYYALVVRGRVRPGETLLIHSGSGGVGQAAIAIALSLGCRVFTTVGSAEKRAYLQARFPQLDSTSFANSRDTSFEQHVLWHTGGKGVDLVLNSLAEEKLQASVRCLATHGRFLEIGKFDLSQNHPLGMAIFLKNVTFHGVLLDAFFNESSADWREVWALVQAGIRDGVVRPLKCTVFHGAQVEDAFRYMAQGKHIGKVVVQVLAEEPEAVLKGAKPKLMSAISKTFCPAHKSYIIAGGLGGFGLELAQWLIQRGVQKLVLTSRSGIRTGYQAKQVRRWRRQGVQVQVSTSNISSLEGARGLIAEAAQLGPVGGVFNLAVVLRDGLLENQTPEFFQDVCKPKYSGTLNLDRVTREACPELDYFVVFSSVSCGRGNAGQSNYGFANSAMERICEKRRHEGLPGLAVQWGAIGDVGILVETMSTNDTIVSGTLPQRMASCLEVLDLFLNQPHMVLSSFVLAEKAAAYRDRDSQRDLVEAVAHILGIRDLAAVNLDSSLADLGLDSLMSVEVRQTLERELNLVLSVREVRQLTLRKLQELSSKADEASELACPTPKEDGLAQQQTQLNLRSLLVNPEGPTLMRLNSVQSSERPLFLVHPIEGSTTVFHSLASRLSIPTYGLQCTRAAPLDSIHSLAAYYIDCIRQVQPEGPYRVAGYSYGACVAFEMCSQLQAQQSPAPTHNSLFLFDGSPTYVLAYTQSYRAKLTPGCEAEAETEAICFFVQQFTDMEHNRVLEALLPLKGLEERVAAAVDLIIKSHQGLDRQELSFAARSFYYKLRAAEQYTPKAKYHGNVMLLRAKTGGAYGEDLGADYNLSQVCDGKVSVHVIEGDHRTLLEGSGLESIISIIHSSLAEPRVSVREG
T1 sequence (P49327 whole entry): as the sequence (P49327 whole entry, the tested form may be a part) above

For orientation: inhibition means the change of the read-out against control, counted positive when it falls. As to `O=C(C1CC1)N1CC[C@@H](CN2C(=O)C3(CC3)N=C2c2ccc(-c3ccc4c(c3)COCC4)cc2)C1` [compound 453, 6-{[(3R)-1-(Cyclopropylcarbonyl)pyrrolidin-3-yl]methyl}-5-[4-(3,4-dihydro-1H-2-benzopyran-7-yl)phenyl]-4,6-diazaspiro[2.4]hept-4-en-7-one], the IC50 in the assay on A2780 ovarian cells [1] is above 10000 nM; in assay [2], 2950 nM; in assay [3] it was 1120 nM; in assay [4], 1620 nM; in assay [5] it was 245 nM; in the assay on A2780 ovarian cells [6], 2140 nM. In assay [5], the inhibition at 10 µM was 94%.
On to `O=C1Cc2cc(-c3ccc(C4=NC5(CC5)C(=O)N4C[C@@H]4CCN(C(=O)C5CC5)C4)cc3)ccc2N1` [compound 457, 5-[4-(6-{[(3R)-1-(Cyclopropylcarbonyl)pyrrolidin-3-yl]methyl}-7-oxo-4,6-diazaspiro[2.4]hept-4-en-5-yl)phenyl]-1,3-dihydro-2H-indol-2-one], for which the IC50 is above 6170 nM with A2780 ovarian cells [1]; above 3020 nM in assay [2]; 1450 nM in assay [3]; 2190 nM in assay [4]; 457 nM in assay [5]; 1260 nM with A2780 ovarian cells [6]. In assay [5], the inhibition at 10 µM was 91%.
In the case of `O=C1Cc2ccc(-c3ccc(C4=NC5(CC5)C(=O)N4C[C@@H]4CCN(C(=O)C5CC5)C4)cc3)cc2N1` [compound 461, 6-[4-(6-{[(3R)-1-(Cyclopropylcvarbonyl)pyrrolidin-3-yl]methyl}-7-oxo-4,6-diazaspiro[2.4]hept-4-en-5-yl)phenyl]-1,3-dihydro-2H-indol-2-one], the IC50 in the assay on A2780 ovarian cells [1] is above 10000 nM; in assay [2] it was around 2510 nM; in assay [3], 1170 nM; in assay [4], around 603 nM; in assay [5], 141 nM; in the assay with A2780 ovarian cells [6] it was around 427 nM. Moreover, in assay [5], the inhibition at 10 µM was found to be 95%.
As to `O=C(C1CC1)N1CC[C@@H](CN2C(=O)C3(CC3)N=C2c2ccc(-c3ccc4c(c3)CCO4)cc2)C1` [compound 462, 6-{[(3R)-1-(Cyclopropylcarbonyl)pyrrolidin-3-yl]methyl}-5-[4-(2,3-dihydro-1-benzofuran-5-yl)phenyl]-4,6-diazaspiro[2.4]hept-4-en-7-one], the IC50 in the assay with A2780 ovarian cells [1] was above 10000 nM; in assay [2], 2340 nM; in assay [3], 912 nM; in assay [4], 1170 nM; in assay [5], 158 nM; with A2780 ovarian cells [6] it was 1860 nM. Further, the inhibition at 10 µM in assay [5] was found to be 98%.
With `N#Cc1cc2cc(-c3ccc(C4=NC5(CC5)C(=O)N4C[C@@H]4CCN(C(=O)C5CC5)C4)cc3F)ccc2o1` [compound 463, 5-[4-(6-{[(3R)-1-(Cyclopropylcarbonyl)pyrrolidin-3-yl]methyl}-7-oxo-4,6-diazaspiro[2.4]hept-4-en-5-yl)-2-fluorophenyl]-1-benzofuran-2-carbonitrile], the IC50 was above 10000 nM in the assay on A2780 ovarian cells [1]; 7240 nM in assay [2]; 977 nM in assay [3]; 1910 nM in assay [4]; 224 nM in assay [5]; around 3800 nM with A2780 ovarian cells [6]. Also, the inhibition at 10 µM in assay [5] is 93%.
In the case of `O=C(C1CC1)N1CC[C@@H](CN2C(=O)C3(CC3)N=C2c2ccc(-c3ccc4c(=O)[nH]ccc4c3)cc2)C1` [compound 467, 6-[4-(6-{[(3R)-1-(Cyclopropylcarbonyl)pyrrolidin-3-yl]methyl}-7-oxo-4,6-diazaspiro[2.4]hept-4-en-5-yl)phenyl]isoquinolin-1(2H)-one], the IC50 with A2780 ovarian cells [1] was above 10000 nM; in assay [2], 2880 nM; in assay [3], 977 nM; in assay [4], 776 nM; in assay [5], 331 nM; in the assay on A2780 ovarian cells [6], 759 nM. In addition, the inhibition at 10 µM in assay [5] came to 93%.
Regarding `COc1nccc2cc(-c3ccc(C4=NC5(CC5)C(=O)N4C[C@@H]4CCN(C(=O)C5CC5)C4)cc3)ccc12` [compound 468, 6-{[(3R)-1-(Cyclopropylcarbonyl)pyrrolidin-3-yl]methyl}-5-[4-(1-methoxyisoquinolin-6-yl)phenyl]-4,6-diazaspiro[2.4]hept-4-en-7-one], the IC50 is above 10000 nM with A2780 ovarian cells [1]; 2040 nM in assay [2]; 1580 nM in assay [3]; 550 nM in assay [4]; 427 nM in assay [5]; 661 nM in the assay on A2780 ovarian cells [6]. In assay [5], the inhibition at 10 µM was 90%.
As for `COc1cc2cc(-c3ccc(C4=NC5(CC5)C(=O)N4C[C@@H]4CCN(C(=O)C5CC5)C4)cc3)ccc2cn1` [compound 470, 6-{[(3R)-1-(Cyclopropylcarbonyl)pyrrolidin-3-yl]methyl}-5-[4-(3-methoxyisoquinolin-6-yl)phenyl]-4,6-diazaspiro[2.4]hept-4-en-7-one], the IC50 is above 10000 nM in the assay with A2780 ovarian cells [1]; 1480 nM in assay [2]; 115 nM in assay [3]; around 631 nM in assay [4]; 182 nM in assay [5]; around 933 nM in the assay on A2780 ovarian cells [6]. Moreover, in assay [5], the inhibition at 10 µM is 98%.
As to `N#Cc1cc2cc(-c3ccc(C4=NC5(CC5)C(=O)N4CC4CN(C(=O)C5CC5)C4)cc3)ccc2o1` [compound 475, 5-[4-(6-{[1-(Cyclopropylcarbonyl)azetidin-3-yl]methyl}-7-oxo-4,6-diazaspiro[2.4]hept-4-en-5-yl)phenyl]-1-benzofuran-2-carbonitrile], the IC50 was above 10000 nM with A2780 ovarian cells [1]; 3310 nM in assay [2]; 372 nM in assay [3]; 661 nM in assay [4]; 166 nM in assay [5]; 813 nM in the assay with A2780 ovarian cells [6]. Moreover, the inhibition at 10 µM in assay [5] was found to be 93%.
Regarding `O=C(C1CC1)N1CC[C@@H](CN2C(=O)C3(CC3)N=C2c2ccc(-c3ccc4c(Cl)nccc4c3)cc2)C1` [compound 479, 5-[4-(1-Chloroisoquinolin-6-yl)phenyl]-6-{[(3R)-1-(cyclopropylcarbonyl)pyrrolidin-3-yl]methyl}-4,6-diazaspiro[2.4]hept-4-en-7-one], the IC50 is above 10000 nM with A2780 ovarian cells [1]; 933 nM in assay [2]; 447 nM in assay [3]; 302 nM in assay [4]; 162 nM in assay [5]; 692 nM in the assay with A2780 ovarian cells [6]. Further, the inhibition at 10 µM in assay [5] amounted to 95%.
Regarding `Cn1nc(N)c2ccc(-c3ccc(C4=NC5(CC5)C(=O)N4C[C@@H]4CCN(C(=O)C5CC5)C4)cc3)cc21` [compound 483, 5-[4-(3-Amino-1-methyl-1H-indazol-6-yl)phenyl]-6-{[(3R)-1-(cyclopropylcarbonyl)pyrrolidin-3-yl]methyl}-4,6-diazaspiro[2.4]hept-4-en-7-one], the IC50 in the assay with A2780 ovarian cells [1] is above 10000 nM; in assay [2], 380 nM; in assay [3] it was 174 nM; in assay [4] it was around 91.2 nM; in assay [5] it was 107 nM; with A2780 ovarian cells [6], 47.9 nM. Further, the inhibition at 10 µM in assay [5] amounted to 95%.
As to `COCc1nn(C)c2cc(-c3ccc(C4=NC5(CC5)C(=O)N4C[C@@H]4CCN(C(=O)C5CC5)C4)cc3)ccc12` [compound 484, 6-{[(3R)-1-(Cyclopropylcarbonyl)pyrrolidin-3-yl]methyl}-5-{4-[3-(methoxymethyl)-1-methyl-1H-indazol-6-yl]phenyl}-4,6-diazaspiro[2.4]hept-4-en-7-one], the IC50 in the assay on A2780 ovarian cells [1] is above 10000 nM; in assay [2] it was 550 nM; in assay [3] it was 257 nM; in assay [4], 151 nM; in assay [5], 151 nM; with A2780 ovarian cells [6], 95.5 nM. The inhibition at 10 µM in assay [5] is 99%.
For the compound `Cn1nc(CO)c2ccc(-c3ccc(C4=NC5(CC5)C(=O)N4C[C@@H]4CCN(C(=O)C5CC5)C4)cc3)cc21` [compound 485, 6-{[(3R)-1-(Cyclopropylcarbonyl)pyrrolidin-3-yl]methyl}-5-{4-[3-(hydroxymethyl)-1-methyl-1H-indazol-6-yl]phenyl}-4,6-diazaspiro[2.4]hept-4-en-7-one], the IC50 in the assay on A2780 ovarian cells [1] is above 10000 nM; in assay [2] it was 631 nM; in assay [3], 302 nM; in assay [4], 214 nM; in assay [5], 162 nM; in the assay on A2780 ovarian cells [6], around 123 nM. Also, the inhibition at 10 µM in assay [5] stood at 96%.
`COCc1c2ccc(-c3ccc(C4=NC5(CC5)C(=O)N4C[C@@H]4CCN(C(=O)C5CC5)C4)cc3)cc2nn1C` [compound 486, 6-{[(3R)-1-(Cyclopropylcarbonyl)pyrrolidin-3-yl]methyl}-5-{4-[3-(methoxymethyl)-2-methyl-2H-indazol-6-yl]phenyl}-4,6-diazaspiro[2.4]hept-4-en-7-one]: the IC50 with A2780 ovarian cells [1] was above 10000 nM; in assay [2] it was 4470 nM; in assay [3], 2630 nM; in assay [4], around 2820 nM; in assay [5] it was 1510 nM; with A2780 ovarian cells [6] it was around 2190 nM. In addition, in assay [5], the inhibition at 10 µM was found to be 81%.
